Among the data in ChEMBL document CHEMBL1201862, “PubChem BioAssay data set” (2004) are AC50, IC50 and EC50 values, retold here.

The target in test [1] is Trypsin (Sus scrofa, UniProt P00761). Nature of the test: porcine trypsin inhibitors, dose response, selectivity assay for Rce1 protease inhibitor project, biochemical, quenched peptide fluorescence, cherry-pick (AID 488789).
For test [2], the target named is T1, CAAX prenyl protease 2 (Homo sapiens, UniProt Q9Y256).
T1 sequence (Q9Y256 whole entry): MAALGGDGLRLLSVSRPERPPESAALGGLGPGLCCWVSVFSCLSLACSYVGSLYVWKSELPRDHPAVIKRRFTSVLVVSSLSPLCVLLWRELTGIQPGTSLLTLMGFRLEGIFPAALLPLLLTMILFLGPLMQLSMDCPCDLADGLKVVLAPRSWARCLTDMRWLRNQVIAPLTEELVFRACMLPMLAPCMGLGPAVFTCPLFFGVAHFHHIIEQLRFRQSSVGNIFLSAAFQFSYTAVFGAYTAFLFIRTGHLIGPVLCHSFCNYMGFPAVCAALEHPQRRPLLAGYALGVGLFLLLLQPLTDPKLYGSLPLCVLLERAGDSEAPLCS
Nature of the test: human Rce1 protease inhibitors, dose response, biochemical, yeast membranes, quenched-peptide fluorescence, cherry-pick (AID 588849).

Test [3] addresses T2, Coagulation factor XII (Homo sapiens, UniProt P00748).
T2 sequence (P00748 whole entry): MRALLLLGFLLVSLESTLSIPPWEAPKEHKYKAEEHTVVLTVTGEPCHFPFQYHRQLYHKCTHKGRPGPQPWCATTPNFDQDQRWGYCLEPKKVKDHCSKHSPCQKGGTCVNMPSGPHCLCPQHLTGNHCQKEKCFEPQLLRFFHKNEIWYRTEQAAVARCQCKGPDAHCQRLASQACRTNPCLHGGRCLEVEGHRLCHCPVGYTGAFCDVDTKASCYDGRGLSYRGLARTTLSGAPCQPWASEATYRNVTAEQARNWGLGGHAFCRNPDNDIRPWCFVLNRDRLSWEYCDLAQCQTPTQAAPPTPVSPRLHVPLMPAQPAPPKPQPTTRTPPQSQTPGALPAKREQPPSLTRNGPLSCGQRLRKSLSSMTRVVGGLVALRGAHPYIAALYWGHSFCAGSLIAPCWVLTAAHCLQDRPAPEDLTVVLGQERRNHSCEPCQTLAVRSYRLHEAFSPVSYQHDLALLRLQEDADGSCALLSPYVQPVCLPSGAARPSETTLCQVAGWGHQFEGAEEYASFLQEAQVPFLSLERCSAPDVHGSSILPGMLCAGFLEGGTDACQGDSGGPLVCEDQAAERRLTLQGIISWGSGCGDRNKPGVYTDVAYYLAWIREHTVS
It is filed as functional.

Test [4] concerns the target DNA dC->dU-editing enzyme APOBEC-3A (Homo sapiens, UniProt P31941). Nature of the test: APOBEC3A DNA deaminase inhibitors, dose response, biochemical (AID 504722). It is filed as functional.
The target in test [5] is DNA dC->dU-editing enzyme APOBEC-3G (Homo sapiens, UniProt Q9HC16). Nature of the test: Dose Response confirmation of small molecule APOBEC3G DNA Deaminase Inhibitors via a fluorescence-based single-stranded DNA deaminase assay. [Related pubchem assays (depositor defined):AID493012, AID493028]. It is filed as functional.
Sequence of DNA dC->dU-editing enzyme APOBEC-3G (Q9HC16 whole entry): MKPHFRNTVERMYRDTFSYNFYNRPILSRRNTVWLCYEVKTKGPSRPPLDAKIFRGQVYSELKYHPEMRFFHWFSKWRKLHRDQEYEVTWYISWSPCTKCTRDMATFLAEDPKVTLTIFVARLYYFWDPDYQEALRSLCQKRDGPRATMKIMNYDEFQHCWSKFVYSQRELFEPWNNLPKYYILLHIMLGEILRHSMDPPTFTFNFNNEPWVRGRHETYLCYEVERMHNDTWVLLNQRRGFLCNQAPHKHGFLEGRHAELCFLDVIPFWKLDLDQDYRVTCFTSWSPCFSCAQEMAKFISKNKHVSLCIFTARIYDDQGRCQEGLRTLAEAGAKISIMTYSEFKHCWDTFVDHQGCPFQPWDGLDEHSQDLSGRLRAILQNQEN
Test [6] has as its target FAD-linked sulfhydryl oxidase ALR (Homo sapiens, UniProt P55789). Nature of the test: inhibitors of human ALR sulfhydryl oxidase, dose response, biochemical, H2O2 detection, luminescence, cherry-pick (AID 493248).
The target in test [7] is T3, Lysine-specific demethylase 4C (Homo sapiens, UniProt Q9H3R0).
T3 sequence (Q9H3R0 whole entry): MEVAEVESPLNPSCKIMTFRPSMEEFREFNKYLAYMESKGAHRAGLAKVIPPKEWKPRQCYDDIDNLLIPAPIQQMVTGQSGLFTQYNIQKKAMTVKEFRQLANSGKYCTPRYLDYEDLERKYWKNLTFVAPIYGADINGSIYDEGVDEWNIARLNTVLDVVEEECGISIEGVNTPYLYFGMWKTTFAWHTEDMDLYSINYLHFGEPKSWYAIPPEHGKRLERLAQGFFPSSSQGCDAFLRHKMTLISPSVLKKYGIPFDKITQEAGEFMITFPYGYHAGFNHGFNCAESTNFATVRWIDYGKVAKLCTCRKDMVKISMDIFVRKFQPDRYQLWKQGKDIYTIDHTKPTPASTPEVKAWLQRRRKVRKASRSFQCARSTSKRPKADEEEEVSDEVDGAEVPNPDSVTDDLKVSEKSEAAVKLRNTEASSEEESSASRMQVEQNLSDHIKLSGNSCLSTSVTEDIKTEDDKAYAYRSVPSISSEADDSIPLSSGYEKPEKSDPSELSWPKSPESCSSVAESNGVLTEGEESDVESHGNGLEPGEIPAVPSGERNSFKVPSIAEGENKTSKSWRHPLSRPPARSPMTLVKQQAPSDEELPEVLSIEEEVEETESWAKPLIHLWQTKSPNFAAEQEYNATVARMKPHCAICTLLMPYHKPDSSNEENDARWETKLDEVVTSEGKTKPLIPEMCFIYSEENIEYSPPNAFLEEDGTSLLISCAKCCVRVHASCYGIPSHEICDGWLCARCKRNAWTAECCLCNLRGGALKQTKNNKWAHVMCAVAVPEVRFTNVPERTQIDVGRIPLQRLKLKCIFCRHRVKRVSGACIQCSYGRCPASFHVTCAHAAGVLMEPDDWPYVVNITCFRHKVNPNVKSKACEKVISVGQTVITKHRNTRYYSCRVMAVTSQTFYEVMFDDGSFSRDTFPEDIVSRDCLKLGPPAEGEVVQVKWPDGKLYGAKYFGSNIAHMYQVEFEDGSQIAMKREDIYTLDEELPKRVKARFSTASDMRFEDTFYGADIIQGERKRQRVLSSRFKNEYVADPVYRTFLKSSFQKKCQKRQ
Nature of the test: GASC-1 (JMJD2C) histone demethylase inhibitors, dose response, biochemical, DELFIA europium, cherry-picked samples (AID 488835). It is filed as functional.

The target in test [8] is T4, RNA-binding protein pos-1 (Caenorhabditis elegans, UniProt G5EF15).
T4 sequence (G5EF15 whole entry): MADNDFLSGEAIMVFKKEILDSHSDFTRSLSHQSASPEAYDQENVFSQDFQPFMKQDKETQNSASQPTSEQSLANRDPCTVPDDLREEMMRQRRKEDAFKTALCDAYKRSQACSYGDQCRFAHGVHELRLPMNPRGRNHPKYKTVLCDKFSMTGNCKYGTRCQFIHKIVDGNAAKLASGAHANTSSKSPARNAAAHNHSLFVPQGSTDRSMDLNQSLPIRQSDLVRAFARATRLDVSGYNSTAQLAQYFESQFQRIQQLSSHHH
Briefly: inhibitors of POS-1/mex-3 RNA binding, dose response, biochemical, fluorescence polarization (AID 1964).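 Further: purified POS-1 fused to maltose binding protein made in E. coli; potency of compounds blocking POS-1 binding to fluorescent RNA.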

Test [9] addresses T5, Zinc finger protein mex-5 (Caenorhabditis elegans, UniProt Q9XUB2).
T5 sequence (Q9XUB2 whole entry): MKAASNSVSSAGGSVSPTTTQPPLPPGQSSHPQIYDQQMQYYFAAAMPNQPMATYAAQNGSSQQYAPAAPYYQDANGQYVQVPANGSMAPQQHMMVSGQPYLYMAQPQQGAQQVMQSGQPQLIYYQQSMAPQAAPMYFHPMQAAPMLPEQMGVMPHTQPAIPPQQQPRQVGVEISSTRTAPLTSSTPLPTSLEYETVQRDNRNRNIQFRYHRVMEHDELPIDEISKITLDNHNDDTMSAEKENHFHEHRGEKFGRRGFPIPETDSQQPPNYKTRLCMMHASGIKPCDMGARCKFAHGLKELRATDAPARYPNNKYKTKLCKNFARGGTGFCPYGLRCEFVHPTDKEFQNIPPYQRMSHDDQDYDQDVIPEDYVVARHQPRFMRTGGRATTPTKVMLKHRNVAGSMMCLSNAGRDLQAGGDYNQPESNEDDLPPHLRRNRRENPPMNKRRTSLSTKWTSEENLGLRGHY
Briefly: MEX-5/TCR-2 RNA interaction inhibitors, dose response, biochemical, C. elegans, fluorescence polarization (AID 1960). In general terms: Polarisation of emitted light reports the rotation of a fluorescent probe.

For test [10], the target named is Alkaline phosphatase, placental type (Homo sapiens, UniProt P05187). Nature of the test: PLAP enzyme inhibitors, confirmation, biochemical, luminescence (AID 1512). It is filed as functional.
Sequence of Alkaline phosphatase, placental type (P05187 whole entry): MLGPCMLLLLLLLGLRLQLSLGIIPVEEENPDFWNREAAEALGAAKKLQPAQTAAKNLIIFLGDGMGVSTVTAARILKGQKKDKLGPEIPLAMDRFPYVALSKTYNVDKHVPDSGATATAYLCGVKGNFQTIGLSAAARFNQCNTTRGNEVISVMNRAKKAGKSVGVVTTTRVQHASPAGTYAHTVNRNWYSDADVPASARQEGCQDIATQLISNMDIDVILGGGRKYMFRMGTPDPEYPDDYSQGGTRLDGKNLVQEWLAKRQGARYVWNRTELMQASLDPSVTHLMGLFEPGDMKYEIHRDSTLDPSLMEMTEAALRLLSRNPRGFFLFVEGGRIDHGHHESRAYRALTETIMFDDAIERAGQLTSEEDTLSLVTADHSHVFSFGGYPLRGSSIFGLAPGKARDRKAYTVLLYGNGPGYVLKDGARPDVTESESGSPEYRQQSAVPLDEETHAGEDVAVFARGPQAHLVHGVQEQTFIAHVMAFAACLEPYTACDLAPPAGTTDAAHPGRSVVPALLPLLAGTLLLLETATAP

The AC50 is the concentration giving half of the maximal activity seen. As a reminder, the IC50 is the concentration that gives 50% inhibition. As a reminder, the EC50 is the concentration at which the effect is half-maximal.

Activity calls are given as the source filed them.

Sequence of FAD-linked sulfhydryl oxidase ALR (P55789 whole entry): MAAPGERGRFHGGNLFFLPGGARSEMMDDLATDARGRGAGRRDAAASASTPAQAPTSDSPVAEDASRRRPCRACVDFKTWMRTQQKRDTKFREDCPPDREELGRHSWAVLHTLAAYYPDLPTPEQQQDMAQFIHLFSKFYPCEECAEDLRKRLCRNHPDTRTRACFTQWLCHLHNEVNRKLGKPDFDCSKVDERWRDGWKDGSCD
Sequence of DNA dC->dU-editing enzyme APOBEC-3A (P31941 whole entry): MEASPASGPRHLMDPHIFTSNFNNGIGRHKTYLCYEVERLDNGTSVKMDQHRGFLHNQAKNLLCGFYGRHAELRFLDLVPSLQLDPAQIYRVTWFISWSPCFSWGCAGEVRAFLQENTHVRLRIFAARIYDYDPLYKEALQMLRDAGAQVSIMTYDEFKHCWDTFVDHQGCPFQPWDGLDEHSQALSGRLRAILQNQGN
Sequence of Trypsin (P00761 whole entry): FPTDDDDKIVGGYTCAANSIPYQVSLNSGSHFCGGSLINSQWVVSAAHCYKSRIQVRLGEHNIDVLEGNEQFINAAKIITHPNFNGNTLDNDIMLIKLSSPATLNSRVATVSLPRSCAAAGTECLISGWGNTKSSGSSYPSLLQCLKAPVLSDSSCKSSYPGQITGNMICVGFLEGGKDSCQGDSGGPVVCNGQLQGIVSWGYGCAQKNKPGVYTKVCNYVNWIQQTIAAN

For `NS(=O)(=O)c1ccc(CCNC(=O)c2ccc3ccccc3n2)cc1`, the values for the AC50 in test [1] and in test [2] were 4.75 µM (active) and 4.74 µM (active), respectively.
For the compound `O=C(O)c1ccc(N/N=C/c2ccc(-c3ccccc3Cl)o2)cc1`, the AC50 in [2] was 54.5 µM (active).
`Cc1ccn(CC(=O)O)c(=O)c1`: the IC50 in test [3] is > 50 µM (inactive).
Consider `COc1cc(/C=N/n2c(S)nnc2COc2ccccc2)cc(Br)c1O`, for which the IC50 in [4] is > 100 µM (inactive); in test [5] it was 2.19 µM (active). Further, in test [6], the AC50 is 2.65 µM (active).
`CCOc1cc(C=C2C(=O)NC(=O)NC2=O)cc([N+](=O)[O-])c1O`: the AC50 in [7] was 2.49 µM (active).
Consider `CCOCCCNC(=O)CCC(=O)NNc1nc2ccccc2c2nc(C)nn12`, for which the figures for the EC50 in test [8] and in test [9] were > 300 µM (not active) and 1.45 µM (active), respectively. The IC50 in test [10] was > 100 µM (inactive).
